Results taken from patent US12012622B1, “Paenibacillus pabuli-derived enzyme capable of producing galacto-oligosaccharide, and method for producing galacto-oligosaccharide” (GODO SHUSEI CO., LTD., priority 2018, dated 2024).
Marks after values point to notes of the source that are not given here.

Legend:
[1] = test system: Paenibacillus pabuli lactase (enzyme of Example 1, SEQ ID NO: 1); experiment: Analysis of reaction rate parameter with ONPG as substrate (Validation 1); type: biochemical; conditions: substrate ONPG 0.075 to 7.5 mM; 40° C., 10 minutes; 100 mM sodium phosphate (pH 6.5)
Source text: After the production of each enzyme, the transformant was ultrasonically disrupted to give a cell disruption liquid. […] The prepared cell disruption liquids were each ultra-filtered as necessary to concentrate the enzyme. The concentrated disruption liquid of the enzyme consisting of an amino acid sequence set forth in SEQ ID NO: 1 was defined as Example 1, and the concentrated disruption liquid of the enzyme consisting of an amino acid sequence set forth in SEQ ID NO: 2 was defined as Example 2.
The reaction rate parameter when using the ONPG of the enzyme of Example 1 as the substrate was determined by the following method. The specific activity (μmol/mg protein/min) upon reaction at a substrate concentration of 0.075 to 7.5 mM at 40° C. for 10 minutes was calculated, and the specific activity was plotted to each substrate concentration. At this time, 100 mM sodium phosphate (pH 6.5) was used as the buffer. From the substrate saturation curve measured by the above method, following the Michaelis-Menten equation, Km (Michaelis-Menten constant), which indicates the affinity between the enzyme and the substrate, and V. (maximum velocity), which indicates how many micromoles of substrate is catalyzed in 1 minute per mg of the enzyme, were calculated.

[2] = test system: Bacillus circulans lactase β-galII (main enzyme of BIOLACTA); conditions: substrate ONPG; cited from Non-Patent Literature 1; cited from earlier work

## O=[N+]([O-])c1ccccc1O[C@@H]1O[C@H](CO)[C@H](O)[C@H](O)[C@H]1O [ONPG, o-nitrophenyl-β-galactopyranoside]
[1]
  Km: 0.36 mM
  Vmax: 55.0 units/mg protein
[2]
  Km: 10 mM
  Vmax: 56.0* units/mg protein
